# Legend:
# S. pyogenes SAIMC 10535 = assay: Dehydrogenase activity (DEHA) MTT test after BMD; type: cell-based, Streptococcus pyogenes; conditions: 24 h exposure; % against untreated control; ± SD; n = 3
# Protocol: (§1) The cell dehydrogenase (DEHA, redox, metabolic) activity of all samples was measured at the end of the BMD assay, based on reducing the MTT dye to formazan by the membrane located bacterial enzyme NADH: ubiquinone reductase (H^+-translocation). The protocol of Wang et al. was applied after minor modifications. Briefly, each sample was incubated for 120 min at 37 °C with MTT at a final concentration of 0.5 mg/mL in the culture medium. The resulting non-soluble violet formazan crystals were dissolved with an equal volume of 2-propanol supplemented with 5% formic acid. The absorbance was measured at 550 nm against a blank solution containing the respective volumes of MHB and MTT.
# (§2) The cell viability is presented as a percentage of the untreated control. At least four wells were seeded for every concentration. Three independent assays were performed (n = 3). […] The respiratory activity of the bacterial cultures was calculated as a percentage against the untreated control.
# E. faecalis ATCC 29212 = assay: Dehydrogenase activity (DEHA) MTT test after BMD; type: cell-based, Enterococcus faecalis; conditions: 24 h exposure; % against untreated control; ± SD; n = 3
# Protocol: as §1, §2
# E. coli ATCC 35218 = assay: Dehydrogenase activity (DEHA) MTT test after BMD; type: cell-based, Escherichia coli; conditions: in MHB; 24 h exposure; % against untreated control; ± SD; n = 3
# Protocol: as §1
# The IC50 values from the MTT assay were evaluated with a non-linear regression analysis (Curve fit, GraphPad Prizm 6.01 software, GraphPad Software Inc., San Diego, CA, USA) using sigmoidal concentration–response curves. The cell viability is presented as a percentage of the untreated control. […] The maximum tolerated concentration (MTC) for the cell lines was determined from three independent assays according to ISO 10993-5 as the maximum concentration at which at least 70% of the cells were viable (nonlin fit, range, GraphPad Prizm 6.01 software) GraphPad Software Inc., San Diego, CA, USA). […] The respiratory activity of the bacterial cultures was calculated as a percentage against the untreated control.
# P. aeruginosa ATCC 27853 = assay: Dehydrogenase activity (DEHA) MTT test after BMD; type: cell-based, Pseudomonas aeruginosa; conditions: for DEHA (dehydrogenase activity): 24 h exposure, % against untreated control, ± SD, n = 3
# Protocol: as §1, §2
# [1] = system: Staphylococcus epidermidis, Salmonella paratyphi A, Vibrio cholerae, Shigella flexneri and Pseudomonas oleovorans; conditions: cited from earlier work
# S. epidermidis = system: S. epidermidis; parameters: method as in doi:10.5580/b43; conditions: in the presence of 6% solvent; cited from earlier work
# [2] = system: CCL-1 (transformed mouse fibroblasts, NCTC clone 929); assay: MTT dye-reduction cytotoxicity assay (ISO 10993-5); type: cell-based; conditions: for MTC (maximum tolerated concentration): at least 70% of cells viable
# From the text: (§3) The cell lines utilized in this study included the human tumor lines A-375 (malignant melanoma) and A-431 (non-melanoma epidermoid squamous skin carcinoma) as well as the models for non-tumorigenic cells—HaCaT (immortalized human keratinocytes) and CCL-1^TM (transformed mouse fibroblasts, NCTC clone 929). The first three cell lines were obtained from CLS Cell Lines Service (GmbH, Eppelheim, Germany). CCL-1^TM was purchased from the American Type Culture Collection (ATCC, Manassas, VA, USA). Cells were maintained in a controlled environment—sterile cell culture flasks in a CO2 incubator Panasonic MCO-18AC (Panasonic Healthcare co., ltd, Oizumi-Machi, Japan) at 37 °C and a humidified atmosphere containing 5% CO2. CCL-1 was cultured in MEM with 10% heat-inactivated horse serum and 2 mM L-glutamine, and the cell culture medium for the rest of the cell lines was DMEM-HG with 4.5 g/L glucose with the addition of 10% heat-inactivated fetal bovine serum and 4 mM L-glutamine. Pen/strep (concentration of penicillin G sodium 10^5 Units/L and of streptomycin sulfate 100 mg/L) was added to both culture media. The cell lines were maintained as an adherent monolayer in a log phase. The cells were sub-cultivated about 1–3 times per week after the monolayer reached 80–90% confluence. The medium was removed from the flask, and the cell monolayer was washed with 3–5 mL PBS. The cells were incubated with 0.05% EDTA in PBS for 8–10 min, followed by the next step where all cell lines were subjected to enzyme cell detachment. HaCaT and CCL-1 monolayers were detached with 1 mL solution of trypsin/EDTA (0.1%/0.05% for HaCaT and 0.25% (w/v)/0.53 mM for CCL-1) and incubated for 2–5 min at 37 °C (for HaCaT) or at room temperature (for CCL-1 cells), whereas Accutase® was used for A-375 and A-431 lines. The incubation lasted until the separation and dispersion of the cells in the monolayer were observed using light microscopy. In the end, all cell lines were resuspended in 10 mL medium and centrifuged for 3 min at 300× g. The cell pellet was resuspended in fresh medium and sub-cultivated at a seeding density of 1.0 × 10^4 cells/cm^2.
# (§4) The MTT test was performed in order to determine the median inhibitory (IC50) and MTC concentrations of the solvents and PAC according to Annex C, ISO 10993-5 [2, 21]. Briefly, 100 µL of the cell suspension (1 × 10^5 cells/mL) were seeded per well in 96-well plates with a flat bottom. The cells were incubated for 24 h, allowing them to enter the log phase of their growth. On the 24th hour, the cells were treated with the solvents or CystiCran® solutions in concentrations ranging between 0.004% and 2% volume fraction (v/v) and incubated further for 72 h. The incubation periods are following the recommendations of the FDA guide for the use of ISO 10993-1 [1]. At the end of the incubation period, 10 µL of an MTT solution (5 mg/mL) were added to each well, and the plates were kept at 37 °C for 2 hours. Thereafter, the medium was aspirated, and the formed formazan crystals were dissolved in 100 μL/well of 2-propanol supplemented with 5% formic acid. The same solvent was used as a blank. Untreated cells were considered as a negative control. […] The absorption was measured at 540 nm (reference filter at 690 nm) on a microplate reader ELx800 (BioTek Instruments, Inc., Winooski, VT, Winooski, VT, USA).
# The IC50 values from the MTT assay were evaluated with a non-linear regression analysis (Curve fit, GraphPad Prizm 6.01 software, GraphPad Software Inc., San Diego, CA, USA) using sigmoidal concentration–response curves. The cell viability is presented as a percentage of the untreated control. At least four wells were seeded for every concentration. Three independent assays were performed (n = 3).
# [3] = system: A-431 (non-melanoma epidermoid squamous skin carcinoma); assay: MTT dye-reduction cytotoxicity assay (ISO 10993-5); type: cell-based, human; conditions: solvent alone, n = 3; for MTC (maximum tolerated concentration): 72 h, at least 70% of cells viable
# From the text: as §3
# as §4, with “blank.” for “blank. Untreated cells were considered as a negative control.”
# The IC50 values from the MTT assay were evaluated with a non-linear regression analysis (Curve fit, GraphPad Prizm 6.01 software, GraphPad Software Inc., San Diego, CA, USA) using sigmoidal concentration–response curves. […]
Compound,DEHA (dehydrogenase activity) (S. pyogenes SAIMC 10535),DEHA (dehydrogenase activity) (E. faecalis ATCC 29212),DEHA (dehydrogenase activity) (E. coli ATCC 35218),DEHA (dehydrogenase activity) (P. aeruginosa ATCC 27853),MTC [1],survival (S. epidermidis),"MTC (maximum tolerated concentration) ([2]; solvent alone, 72 h, n = 3)",MTC (maximum tolerated concentration) [3],IC50 (CI 95%) ([3]; 72 h incubation),growth inhibition ([1]; at a concentration of 1% v/v),"IC50 value ([2]; 72 h, equals 1.16% v/v)","IC50 (CI 95%) ([2]; solvent alone, 72 h incubation, n = 3)",suppression of the respiratory activity (P. aeruginosa ATCC 27853; P. aeruginosa)
"C[S+](C)[O-] [DMSO, dimethyl sulfoxide]",27.27 ± 0.02%,29.86 ± 0.08%,13.02%,9.78 ± 0.01%,3 % volume fraction,15%,–,–,–,–,–,–,–
"CCO [EtOH, ethanol]",–,–,–,–,–,26%,1.15 % (v/v),> 2 % (v/v),> 2 % (v/v),19%,–,–,–
polyethylene glycol of average molecular weight 400 [PEG-400],23.66 ± 0.02%,65.33 ± 0.06%,–,15.31 ± 0.04%,–,–,0.21 % (v/v),0.89 % (v/v),–,–,13 mg/mL,1.16 % (v/v),~85%

# From publication PMC8143291, “Cytotoxicity and Microbicidal Activity of Commonly Used Organic Solvents: A Comparative Study and Application to a Standardized Extract from Vaccinium macrocarpon” (Toxics, 2021)
